≈ marks a conversion by molar mass, not a printed value.
What was measured:
Cryptococcus neoformans = test: Anti-fungal activity against Cryptococcus neoformans CGMCC 2.3161 by broth microdilution method; type: functional
Candida tropicalis = test: Anti-fungal activity against Candida tropicalis CGMCC 2.3739 by broth microdilution method; type: functional
Aspergillus fumigatus = test: Anti-fungal activity against Aspergillus fumigatus CGMCC 3.7795 by broth microdilution method; type: functional
Candida albicans [1] = test: Anti-fungal activity against Candida albicans SC5314 by broth microdilution method; type: functional
Candida albicans [2] = test: Anti-fungal activity against Candida albicans CPCC 400523 by broth microdilution method; type: functional
[3] = target: T1, Lanosterol 14-alpha demethylase (Candida albicans (strain SC5314 / ATCC MYA-2876) (Yeast), UniProt P10613); test: Inhibition of Candida albicans SC5314 CYP51 assessed as ergosterol composition of total sterols at 8 ug/ml by GC-MS method (reference value: 89.4 %); design: scale not given: the % may be the effect or the level left; details: at 8 µg/mL
[4] = target: T1, Lanosterol 14-alpha demethylase; test: Inhibition of Candida albicans SC5314 CYP51 assessed as eburicol composition of total sterols at 8 ug/ml by GC-MS method relative to control; design: scale not given: the % may be the effect or the level left; details: at 8 µg/mL
Candida albicans [5] = test: Anti-fungal activity against fluconazole-resistant Candida albicans 100 by broth microdilution method; type: functional
[6] = target: T1, Lanosterol 14-alpha demethylase; test: Inhibition of Candida albicans SC5314 CYP51 assessed as lanosterol composition of total sterols at 8 ug/ml by GC-MS method (reference value: 3.5 %); design: scale not given: the % may be the effect or the level left; details: at 8 µg/mL
[7] = target: T1, Lanosterol 14-alpha demethylase; test: Inhibition of Candida albicans SC5314 CYP51 assessed as obtusifoliol composition of total sterols at 8 ug/ml by GC-MS method relative to control; design: scale not given: the % may be the effect or the level left; details: at 8 µg/mL
[8] = target: T1, Lanosterol 14-alpha demethylase; test: Inhibition of Candida albicans SC5314 CYP51 assessed as change in total sterol composition at 8 ug/ml by GC-MS method (reference value: 7.1 %); design: scale not given: the % may be the effect or the level left; details: at 8 µg/mL
Candida albicans [9] = test: Anti-fungal activity against fluconazole-resistant Candida albicans 103 by broth microdilution method; type: functional

T1 sequence (P10613 whole entry): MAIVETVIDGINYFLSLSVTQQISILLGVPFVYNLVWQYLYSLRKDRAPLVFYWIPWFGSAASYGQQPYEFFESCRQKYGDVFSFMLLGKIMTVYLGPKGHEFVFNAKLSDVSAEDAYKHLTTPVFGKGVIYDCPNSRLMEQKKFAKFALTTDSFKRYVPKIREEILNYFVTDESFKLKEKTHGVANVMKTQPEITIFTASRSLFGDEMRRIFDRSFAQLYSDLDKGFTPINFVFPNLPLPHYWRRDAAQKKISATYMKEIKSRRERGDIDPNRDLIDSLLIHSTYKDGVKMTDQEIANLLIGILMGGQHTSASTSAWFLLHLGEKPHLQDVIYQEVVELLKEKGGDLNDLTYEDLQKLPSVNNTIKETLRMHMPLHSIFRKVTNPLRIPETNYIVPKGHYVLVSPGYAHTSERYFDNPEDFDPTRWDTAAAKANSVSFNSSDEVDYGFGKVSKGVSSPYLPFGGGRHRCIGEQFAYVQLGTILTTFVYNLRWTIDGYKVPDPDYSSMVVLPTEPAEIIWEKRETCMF

SMILES | MIC (Cryptococcus neoformans) [µg/mL] | MIC (Candida tropicalis) [µg/mL] | MIC (Aspergillus fumigatus) [µg/mL] | MIC (Candida albicans [1]) [µg/mL] | MIC (Candida albicans [2]) [µg/mL] | Activity [3] [%] | Activity [4] [%] | MIC (Candida albicans [5]) [µg/mL] | Activity [6] [%] | Activity [7] [%] | Activity [8] [%] | MIC (Candida albicans [9]) [µg/mL]
CCCOC(=O)[C@H](Cn1ccnc1)NC(=O)c1ccc(-c2ccccc2F)cc1 | 0.5 (≈ 1.26 µM) | 0.0625 (≈ 0.158 µM) | > 16 | 0.125 (≈ 0.316 µM) | 0.25 (≈ 0.632 µM) |  |  |  |  |  |  | 
Cc1ccccc1-c1ccc(C(=O)N[C@@H](Cn2ccnc2)C(=O)OCC(C)C)cc1 | > 16 | 4 (≈ 9.86 µM) | > 16 | > 16 | > 16 |  |  |  |  |  |  | 
CC(C)NC(=O)[C@H](Cn1ccnc1)NC(=O)c1ccc(-c2ccccc2)cc1 | > 16 | > 16 | > 16 | > 16 | > 16 |  |  |  |  |  |  | 
CC(C)OC(=O)[C@H](Cn1cncn1)NC(=O)c1ccc(-c2ccccc2)cc1 | 16 (≈ 42.3 µM) | 2 (≈ 5.28 µM) | > 16 | 0.25 (≈ 0.661 µM) | 4 (≈ 10.6 µM) |  |  |  |  |  |  | 
CC(C)COC(=O)[C@H](Cn1ccnc1)NC(=O)c1ccc(-c2ccccc2)cc1 | 1 (≈ 2.55 µM) | 0.0312 (≈ 0.0798 µM) | > 16 | 0.0312 (≈ 0.0798 µM) | 0.25 (≈ 0.639 µM) |  |  |  |  |  |  | 
CC(C)OC(=O)[C@H](Cn1ccnc1)NC(=O)c1ccc(-c2ccccc2)cc1 | 2 (≈ 5.3 µM) | 0.0625 (≈ 0.166 µM) | > 16 | 0.0312 (≈ 0.0828 µM) | 0.25 (≈ 0.662 µM) |  |  |  |  |  |  | 
CC(C)CNC(=O)[C@H](Cn1ccnc1)NC(=O)c1ccc(-c2ccccc2)cc1 | > 16 | > 16 | > 16 | > 16 | > 16 |  |  |  |  |  |  | 
CC(C)OC(=O)[C@H](Cn1ccnc1)NC(=O)c1ccc(-c2ccc(Cl)cc2)cc1 | 16 (≈ 38.8 µM) | 0.25 (≈ 0.607 µM) | > 16 | 0.25 (≈ 0.607 µM) | 1 (≈ 2.43 µM) |  |  |  |  |  |  | 
CC(C)OC(=O)[C@H](Cn1ccnc1)NC(=O)c1ccc(-c2ccc(C(F)(F)F)cc2)cc1 | > 16 | 2 (≈ 4.49 µM) | > 16 | > 16 | > 16 |  |  |  |  |  |  | 
CCC(C)n1ncn(-c2ccc(N3CCN(c4ccc(OCC5COC(Cn6cncn6)(c6ccc(Cl)cc6Cl)O5)cc4)CC3)cc2)c1=O (stereo unspecified) [ITRACONAZOLE] | 1 (≈ 1.42 µM) | 0.5 (≈ 0.709 µM) | 4 (≈ 5.67 µM) | 0.0625 (≈ 0.0886 µM) | 0.25 (≈ 0.354 µM) |  |  |  |  |  |  | 
CCOC(=O)[C@H](Cn1ccnc1)NC(=O)c1ccc(-c2ccccc2F)cc1 | 1 (≈ 2.62 µM) | 0.125 (≈ 0.328 µM) | > 16 | 0.25 (≈ 0.655 µM) | 1 (≈ 2.62 µM) |  |  |  |  |  |  | 
CC(C)OC(=O)[C@H](Cn1ccnc1)NC(=O)c1ccc(-c2ccccc2Cl)cc1 | 16 (≈ 38.8 µM) | 0.5 (≈ 1.21 µM) | > 16 | 0.25 (≈ 0.607 µM) | 1 (≈ 2.43 µM) |  |  |  |  |  |  | 
CC(C)COC(=O)[C@H](Cn1ccnc1)NC(=O)c1ccc(-c2ccccc2Cl)cc1 | 16 (≈ 37.6 µM) | 0.5 (≈ 1.17 µM) | > 16 | 0.5 (≈ 1.17 µM) | 2 (≈ 4.7 µM) |  |  |  |  |  |  | 
CC(C)OC(=O)[C@H](Cn1ccnc1)NC(=O)c1ccc(-c2cccc(F)c2)cc1 | 16 (≈ 40.5 µM) | 0.0625 (≈ 0.158 µM) | > 16 | 0.0625 (≈ 0.158 µM) | 0.25 (≈ 0.632 µM) |  |  |  |  |  |  | 
CC(C)COC(=O)[C@H](Cn1cncn1)NC(=O)c1ccc(-c2ccccc2)cc1 | 16 (≈ 40.8 µM) | 4 (≈ 10.2 µM) | > 16 | 1 (≈ 2.55 µM) | 8 (≈ 20.4 µM) |  |  |  |  |  |  | 
CC(C)OC(=O)[C@H](Cn1ccnc1)NC(=O)c1ccc(-c2cc(F)ccc2F)cc1 | 16 (≈ 38.7 µM) | 0.0625 (≈ 0.151 µM) | > 16 | 0.25 (≈ 0.605 µM) | 1 (≈ 2.42 µM) |  |  |  |  |  |  | 
CC(C)OC(=O)[C@H](Cn1ccnc1)NC(=O)c1ccc(-c2ccc(F)c(F)c2)cc1 | > 16 | 8 (≈ 19.4 µM) | > 16 | > 16 | > 16 |  |  |  |  |  |  | 
Cc1ccc(-c2ccc(C(=O)N[C@@H](Cn3ccnc3)C(=O)OC(C)C)cc2)cc1 | 4 (≈ 10.2 µM) | 0.0625 (≈ 0.16 µM) | > 16 | 0.0625 (≈ 0.16 µM) | 0.5 (≈ 1.28 µM) |  |  |  |  |  |  | 
COC(=O)[C@H](Cn1ccnc1)NC(=O)c1ccc(-c2ccccc2F)cc1 | 2 (≈ 5.44 µM) | 4 (≈ 10.9 µM) | > 16 | 16 (≈ 43.6 µM) | 16 (≈ 43.6 µM) |  |  |  |  |  |  | 
CC(C)OC(=O)[C@H](Cn1ccnc1)NC(=O)c1ccc(-c2cccc(C#N)c2)cc1 | > 16 | 8 (≈ 19.9 µM) | > 16 | > 16 | > 16 |  |  |  |  |  |  | 
OC(Cn1cncn1)(Cn1cncn1)c1ccc(F)cc1F [FLUCONAZOLE] | 4 (≈ 13.1 µM) | 1 (≈ 3.27 µM) | > 16 | 0.5 (≈ 1.63 µM) | 1 (≈ 3.27 µM) | 2 | 68.1 | > 64 | 18.2 | 6.8 | 4.9 | > 64
CC(C)OC(=O)[C@H](Cn1ccnc1)NC(=O)c1ccc(-c2ccc(F)cc2)cc1 | > 16 | 0.5 (≈ 1.26 µM) | > 16 | 1 (≈ 2.53 µM) | 8 (≈ 20.2 µM) |  |  |  |  |  |  | 
COC(=O)[C@H](Cn1ccnc1)NC(=O)c1ccc(-c2ccccc2)cc1 | > 16 | 0.25 (≈ 0.716 µM) | > 16 | 2 (≈ 5.72 µM) | 2 (≈ 5.72 µM) |  |  |  |  |  |  | 
CC(C)OC(=O)[C@H](Cn1ccnc1)NC(=O)c1ccc(-c2ccccc2F)cc1 | 1 (≈ 2.53 µM) | 0.0625 (≈ 0.158 µM) | > 16 | 0.0625 (≈ 0.158 µM) | 0.25 (≈ 0.632 µM) |  |  | 8 (≈ 20.2 µM) |  |  |  | 4 (≈ 10.1 µM)
Cc1ccccc1-c1ccc(C(=O)N[C@@H](Cn2ccnc2)C(=O)OC(C)C)cc1 | 16 (≈ 40.9 µM) | 2 (≈ 5.11 µM) | > 16 | 0.5 (≈ 1.28 µM) | 2 (≈ 5.11 µM) |  |  |  |  |  |  | 
CC(C)OC(=O)[C@H](Cn1ccnc1)NC(=O)c1ccc(-c2ccc(OC(F)(F)F)cc2)cc1 | 16 (≈ 34.7 µM) | 0.5 (≈ 1.08 µM) | > 16 | 0.125 (≈ 0.271 µM) | 0.125 (≈ 0.271 µM) |  |  |  |  |  |  | 
CC(C)OC(=O)[C@H](Cn1ccnc1)NC(=O)c1ccc(-c2ccc(F)cc2F)cc1 | 8 (≈ 19.4 µM) | 0.5 (≈ 1.21 µM) | > 16 | 1 (≈ 2.42 µM) | 2 (≈ 4.84 µM) |  |  |  |  |  |  | 
CC(C)COC(=O)[C@H](Cn1ccnc1)NC(=O)c1ccc(-c2ccccc2F)cc1 | 0.5 (≈ 1.22 µM) | 0.0312 (≈ 0.0763 µM) | > 16 | 0.0312 (≈ 0.0763 µM) | 0.125 (≈ 0.305 µM) | 2.5 | 65.1 | 2 (≈ 4.88 µM) | 19.6 | 6.6 | 6.2 | 4 (≈ 9.77 µM)

Source: ChEMBL document CHEMBL3872264, “Discovery of biphenyl imidazole derivatives as potent antifungal agents: Design, synthesis, and structure-activity relationship studies” (Bioorg Med Chem, 2017)
